Legend:
[1] = test system: H358 cells (ATCC CRL-5807); assay: Cell viability assay (CellTiter-Glo), H358 cells; assay type: cell-based; details: Homo sapiens, NCI-H358, 48 h incubation, first value of the cell, read-out: Cell Viability (μM) H358 (concentration that decreases cell viability by 50%)
Method: (§1) Cells (A549 ATCC CCL-185) are cultured in Dulbecco's Modified Eagle's Medium plus 10% foetal calf serum and 2 mM L-glutamine at 37° C., 5% CO2. Cells are plated onto white clear bottom 96-well plates (5000 cells/well in 200 μl media) and left to adhere overnight at 37° C., 5% CO2. Next day, test compound (1 μl at 200× concentration in 100% DMSO) is added to give final test compound concentration 1× in 0.5% DMSO. After 48 h of incubation at 37° C., 5% CO2, 20 μl CellTiter-Glo reagent (Promega G7572) is added into each well. Plates are incubated at room temperature with shaking for 30 min and then luminescence is read using a PheraStar plate reader. The concentration of compounds that decrease cell viability by 50% is calculated from dose response curves generated using Dotmatics data analysis software.
In the H358 cell assay, cells (ATCC CRL-5807) are cultured in RPM-1640 medium plus 10% foetal calf serum and 2 mM L-glutamine at 37° C., 5% CO2.

[2] = target: T1, GST-human KRas166 (G12V) GPPNHP (Homo sapiens, UniProt P01116, G12V); assay: KRas small-molecule screening by SPR (BIACORE T200); assay type: binding; details: compound at final concentration of 100 uM; immobilised GST-KRAS166 (G12V) GPPNHP, GST reference channel
T1 construct: made in house; host or cells: E. coli C41(DE3)
Method: For SPR assays pGEX-KRAS(G12V) plasmid was transformed into E. coli C41(DE3). Bacterial cells were cultured at 37° C. to an OD600 of 0.6 and induced with IPTG (final 0.1 mM) at 18° C. overnight. The GST fusion proteins were extracted from bacteria pellets after cell disruption in 140 mM NaCl, 2.7 mM KCl, […], 1.8 mM KH2PO4, 1 mM EDTA, 2 mM MgCl2 pH 7.4 and purified by glutathione-sepharose column chromatography (GE Healthcare), eluting with 50 mM Tris-HCl pH8.0, 10 mM reduced glutathione, 1 mM DTT, 2 mM MgC2. The eluted proteins were dialysed against 50 mM Tris-HCl pH8.0, 1 mM DTT, 2 mM MgCl2 and concentrated to 10 mg/ml using a Biomax-30 […]-15 centrifugal filter device (Millipore). Purified KRAS protein was loaded with GPPNHP as described elsewhere (Pacold et al., 2000). Loaded protein was then purified by gel filtration on a HiLoad Superdex-75 HR column (GE Healthcare) in 1×PBS pH7.4, 5 mM MgCl2 and concentrated for storage.
To a previously immobilized CM5 chip (GE Healthcare BR-1005-30) with anti GST antibody via amine coupling method, GST in channel 1 and GST-human KRas166 (G12V) GPPNHP in channel 2 were immobilised. GST was immobilised between 2,000 and 5,000 Response units. KRAS166 (G12V) was immobilized between 10,000 to 15,000 Response Units.
In a 96 well plate, compounds were diluted in […], 5 mM MgCl2 and 5% DMSO Buffer to a final concentration of 100 uM. DCAI was used as positive control. Experiment also included a solvent correction curve for 5% DMSO. Screening and evaluation of the protein immobilization and the compounds screening was done accordingly to the BIACORE T200 control and evaluation software.
Protein immobilisation: 10,000 RU; average fragment 300 Da in size. Rmax=(MWA/MWL)×RL×SM MWA is the molecular weight of the analyte in Da MWL is the molecular weight of the ligand in Da RL is the immobilization level in RU SM is the molar stoichiometry (assume 1:1) Rmax=300/47,500×10,000×1 Rmax=63 RU. Cell Viability Assay protocols

[3] = test system: DLD1 cells (ATCC CCL-221); assay: Cell viability assay (CellTiter-Glo), DLD1 cells; assay type: cell-based; details: Homo sapiens, DLD-1 cells, 48 h incubation, second value of the cell, read-out: Cell Viability (μM) DLD-1 (concentration that decreases cell viability by 50%)
Method: as §1
In the DLD1 cell assay, cells (ATCC CCL-221) are cultured in RPMI-1640 medium plus 10% foetal calf serum and 2 mM L-glutamine at 37° C., 5% CO2.

| IC50 [1] [µM] | SPR Response Units [2] [Response Units] | IC50 [3] [µM] | Structure (SMILES) |
| --- | --- | --- | --- |
| 74 | 7 | 16 | CC(C)(C)OC(=O)NCc1ccc(CN(C[C@@H]2COc3ccc(OCc4ccccc4)cc3O2)C(=O)c2ncco2)cc1 [Example 41, (4-{[((R)-7-Benzyloxy-2,3-dihydro-benzo[1,4]dioxin-2-ylmethyl)-(oxazole-2-carbonyl)-amino]-methyl}-benzyl)-carbamic acid tert-butyl ester] |
| 29 | 93 | 3 | O=C(c1ncco1)N(CC1CCN(Cc2ccccc2)CC1)C[C@@H]1COc2ccc(OCc3ccccc3)cc2O1 [Example 42, Oxazole-2-carboxylic acid ((R)-7-benzyloxy-2,3-dihydro-benzo[1,4]dioxin-2-ylmethyl)-(1-benzyl-piperidin-4-ylmethyl)-amide] |
| > 100 | 221 | 9 | NCc1ccc(CN(C[C@@H]2COc3ccc(OCc4ccccc4)cc3O2)C(=O)c2ncco2)cc1 [Example 44, Oxazole-2-carboxylic acid (4-aminomethyl-benzyl)-((R)-7-benzyloxy-2,3-dihydro-benzo[1,4]dioxin-2-ylmethyl)-amide] |
| 26.3 | 22 | 9.6 | c1ccc(COc2ccc3c(c2)O[C@H](CNC2CCNCC2)CO3)cc1 [Example 45, ((R)-7-Benzyloxy-2,3-dihydro-benzo[1,4]dioxin-2-ylmethyl)-piperidin-4-yl-amine] |
| 16 | 75 | 2 | CN1CCC(CNC[C@@H]2COc3ccc(OCc4ccccc4)cc3O2)CC1 [Example 46, ((R)-7-Benzyloxy-2,3-dihydro-benzo[1,4]dioxin-2-ylmethyl)-(1-methyl-piperidin-4-ylmethyl)-amine] |
| 35 | 48 | 15.7 | O=C1CCCN1CC(NC[C@@H]1COc2ccc(OCc3ccccc3)cc2O1)c1ccccc1 (stereo partly drawn) [Example 47, 1-{2-[((R)-7-Benzyloxy-2,3-dihydro-benzo[1,4]dioxin-2-ylmethyl)-amino]-2-phenyl-ethyl}-pyrrolidin-2-one] |
| 28 | 70 | 5 | CN(C)CC(=O)N[C@H]1CC[C@@H](NC[C@@H]2COc3ccc(OCc4ccccc4)cc3O2)CC1 [Example 50, N-{4-[((R)-7-Benzyloxy-2,3-dihydro-benzo[1,4]dioxin-2-ylmethyl)-amino]-cyclohexyl}-2-dimethylamino-acetamide] |
| 14 | 166 | 7.3 | CN(C)CC(=O)N[C@H]1CC[C@@H](N(Cc2ccn[nH]2)C[C@@H]2COc3ccc(OCc4ccccc4)cc3O2)CC1 [Example 51, N-{4-[((R)-7-Benzyloxy-2,3-dihydro-benzo[1,4]dioxin-2-ylmethyl)-(2H-pyrazol-3-ylmethyl)-amino]-cyclohexyl}-2-dimethylamino-acetamide] |
| > 100 | 70 | 15 | O=c1ccccn1CCN1CCN(C[C@@H]2COc3ccc(OCc4ccccc4)cc3O2)CC1 [Example 52, 1-{2-[4-((R)-7-Benzyloxy-2,3-dihydro-benzo[1,4]dioxin-2-ylmethyl)-piperazin-1-yl]-ethyl}-1H-pyridin-2-one] |
| 42 | 93 | 7 | CN1CCN(Cc2cccc(CNC(=O)C3COc4ccc(OCc5ccccc5)cc4O3)c2)CC1 (stereo not drawn) [Example 62, 7-Benzyloxy-2,3-dihydro-benzo[1,4]dioxine-2-carboxylic acid 3-(4-methyl-piperazin-1-ylmethyl)-benzylamide] |
| 21.3 | 115 | 16.7 | O=C(NCc1ccc(CN2CCNCC2)cc1)C1COc2ccc(OCc3ccccc3)cc2O1 (stereo not drawn) [Example 74, 7-Benzyloxy-2,3-dihydro-benzo[1,4]dioxine-2-carboxylic acid 4-piperazin-1-ylmethyl-benzylamide] |

Continued, molecule first:

| Structure (SMILES) | IC50 [1] [µM] | SPR Response Units [2] [Response Units] | IC50 [3] [µM] |
| --- | --- | --- | --- |
| Cc1cccc(COc2ccc3c(c2)O[C@H](CNC(=O)C2CCN(C)CC2)CO3)c1 [Example 28, 1-Methyl-piperidine-4-carboxylic acid [(R)-7-(3-methyl-benzyloxy)-2,3-dihydro-benzo[1,4]dioxin-2-ylmethyl]-amide] | 16.6 | 39 | 8.2 |
| Cc1ccc(COc2ccc3c(c2)O[C@H](CNC(=O)C2CCN(C)CC2)CO3)cc1 [Example 29, 1-Methyl-piperidine-4-carboxylic acid [(R)-7-(4-methyl-benzyloxy)-2,3-dihydro-benzo[1,4]dioxin-2-ylmethyl]-amide] | 12.5 | 37 | 6.8 |
| CN1CCC(C(=O)NC[C@@H]2COc3ccc(OCc4cccc(Cl)c4)cc3O2)CC1 [Example 30, 1-Methyl-piperidine-4-carboxylic acid [(R)-7-(3-chloro-benzyloxy)-2,3-dihydro-benzo[1,4]dioxin-2-ylmethyl]-amide] | 16.2 | 64 | 3.9 |
| CN1CCC(C(=O)NC[C@@H]2COc3ccc(OCc4ccc(F)cc4)cc3O2)CC1 [Example 31, 1-Methyl-piperidine-4-carboxylic acid [(R)-7-(4-fluoro-benzyloxy)-2,3-dihydro-benzo[1,4]dioxin-2-ylmethyl]-amide] | 18.2 | 28 | 9.6 |
| Cc1ccccc1COc1ccc2c(c1)O[C@H](CNC(=O)C1CCN(C)CC1)CO2 [Example 32, 1-Methyl-piperidine-4-carboxylic acid [(R)-7-(2-methyl-benzyloxy)-2,3-dihydro-benzo[1,4]dioxin-2-ylmethyl]-amide] | 26.2 | 37 | 15.9 |
| CN(C)CCCOc1ccc(CN(C[C@@H]2COc3ccc(OCc4ccccc4)cc3O2)C(=O)c2ncco2)cc1 [Example 40, Oxazole-2-carboxylic acid ((R)-7-benzyloxy-2,3-dihydro-benzo[1,4]dioxin-2-ylmethyl)-[4-(3-dimethylamino-propoxy)-benzyl]-amide] | 14 | 173 | 2 |
| O=C(c1ncco1)N(C[C@@H]1COc2ccc(OCc3ccccc3)cc2O1)C1CCN(Cc2ccccc2)CC1 [Example 43, Oxazole-2-carboxylic acid ((R)-7-benzyloxy-2,3-dihydro-benzo[1,4]dioxin-2-ylmethyl)-(1-benzyl-piperidin-4-yl)-amide] | 20.8 | 35 | 18.5 |
| O=C(Nc1ncc[nH]1)C1COc2ccc(OCc3ccccc3)cc2O1.O=CO (stereo not drawn) [Example 61, 7-Benzyloxy-2,3-dihydro-benzo[1,4]dioxine-2-carboxylic acid (1H-imidazol-2-yl)-amide; formic acid salt] | > 100 | 25 | 13 |

Reference: patent US11724999B2, “Inhibitors of RAS-effector protein interactions” (Oxford University Innovation Limited, priority 2018, dated 2023)
